In patent US20050239873A1 (priority 1999, published 2005):
Values joined by “and” are separate entries in the source; they are usually repeats but may differ in a detail not shown here. Equal entries are not always repeated.

Assays:
[1] = test system: TAMH vector-only control cells; assay: Cytotoxicity (Alamar Blue); type: cell-based, murine; settings: 24 h
Protocol: (§1) TAMH cells were transfected with DNA encoding each of the mutant BCl-xL proteins by lipofection (See Example 1 for method). For analysis of BCl-xL expression, 20 μg of cell protein was separated by 20% SDS-PAGE and transferred to nitrocellulose membranes. Immunodetection of BCl-xL was carried out using rabbit anti-Bcl-xL antibody and Protein A/horseradish peroxidase conjugate, followed by chemiluminescent detection. Cells were grown to about 80% confluence in 96-well plates followed by addition of 100 μl of 2X AA1 or staurosporine (STS) solution in complete medium. STS is a natural product originally isolated from the bacterium Streptomyces and found to be capable of inducing apoptosis in certain cells and which induction of apoptosis could be blocked by the expression of a Bcl-2 family protein. Cell viability was determined spectrophotometrically after 24 h treatment as the ratio of reduced and oxidized Alamar Blue (BIOSOURCE) at 570 nm and 600 nm, respectively. All results were normalized against DMSO controls. LD50 values were calculated by non-linear regression analysis using Prism software (Graphpad).

[2] = test system: TAMH cells over-expressing Bcl-xL WT; assay: Cytotoxicity (Alamar Blue) in Bcl-xL transfectants; type: cell-based, murine; settings: 24 h
Protocol: as §1

[3] = test system: TAMH cells over-expressing Bcl-xL F146L; assay: Cytotoxicity (Alamar Blue) in Bcl-xL transfectants; type: cell-based, murine; settings: 24 h
Protocol: as §1

[4] = test system: TAMH cells over-expressing Bcl-xL F97W; assay: Cytotoxicity (Alamar Blue) in Bcl-xL transfectants; type: cell-based, murine; settings: 24 h
Protocol: as §1

[5] = test system: TAMH cells over-expressing Bcl-xL A142L; assay: Cytotoxicity (Alamar Blue) in Bcl-xL transfectants; type: cell-based, murine; settings: 24 h
Protocol: as §1

[6] = test system: TAMH cells over-expressing Bcl-xL E92L; assay: Cytotoxicity (Alamar Blue) in Bcl-xL transfectants; type: cell-based, murine; settings: 24 h
Protocol: as §1

[7] = molecular target: T1, recombinant human Bcl-2ΔC22 (Homo sapiens, UniProt P10415); assay: Antimycin A3 fluorescence binding and competition assay
T1 construct: poly-His (N); made in house
Protocol: In this assay, 0 to 5 μM antimycin A3 (Sigma Chemical Co., St. Louis, Mo.) was added to a physiological buffer (50 mM Tris-HCl pH 8.0, 0.2 M NaCl, 2 mM EDTA, 0.5% v/v glycerol) containing recombinant Bcl-2 or BCl-xL protein under conditions that permitted antimycin A3 to bind to the BH3-binding domain of Bcl-2 or BCl-xL (22.5° C. on a Hitachi F-2500 fluorescence spectrofluorimeter equipped with a thermostatted cell holder). […] The excitation wavelength was 335 nm, and the maximum emission wavelength for antimycin A3 was 428 nm with a slit width of 10 nm. The samples were mixed in a quartz cuvette and checked for inner filter effect over the concentration range of antimycin A3 used for this study. Blanks containing antimycin A3 at the same concentration as the experimental samples were used as controls in all measurements and necessary background corrections were made.
Recombinant human Bcl-2ΔC22 (a recombinant human Bcl-2 with a delection of 22 amino acid residue membrane anchor sequence from the carboxyl end) and mouse Bcl-xLΔC20 (a recombinant murine BCl-xL with a delection of the 20 amino acid residue membrane anchor sequence from the carboxyl end) fused with poly-His at the N-terminus were chromatographically purified to homogeneity. The concentrations of antimycin A3 and stock solutions of recombinant proteins were quantitated using an extinction coefficient of 7.24/mM/cm at 320 nm and by Bradford assay, respectively. The stoichiometric ratio of antimycin A3 and Bcl-2 producing the maximal change in antimycin A3 fluorescence was determined with incremental addition of antimycin A3 to a 1.98 μM solution of recombinant Bcl-2 in a volume of 2.1 milliliters. […] For peptide displacement experiments, a solution of 2 μM antimycin A3 and 3 μM Bcl-2 was allowed to reach binding equilibrium at 4° C. prior to fluorescence measurements. Native peptide corresponding to the BH3 domain of Bak (72-[…]87 (SEQ ID NO:1)) or a mutant peptide with a single amino acid change (Leu78Ala-BH3) was added to the solution and the fluorescence measurements were repeated. […]

[8] = test system: mitochondria with normal levels of Bcl-xL expression; assay: JC-1 membrane potential of isolated mitochondria; parameters: species or system murine
Protocol: Isolated mitochondria were loaded with JC-1 prior to treatment, and mitochondrial labeling was determined using FACS. […] Antimycin A-treated mitochondria with high levels of Bcl-xL had lower levels of JC-1 staining than parallel samples treated with CCCP. Uncoupled mitochondria still retain a significant Donnan potential because of trapped anionic species and it is likely that antimycin-induced PT and/or swelling of mitochondria led to a further reduction of this residual potential.
As observed for the parent compound, antimycin A3, mitochondria with normal levels of BCl-xL expression were not affected by the 2-methoxy analog.

NCI-H929 = assay: Propidium iodide exclusion / flow cytometry cytotoxicity; type: cell-based, human; settings: oligomycin 2-10 mg/ml, rotenone 0.5-2.5 mg/ml
Protocol: (§2) Cell survival was assayed by exclusion of propidium iodide (PI; 10 μg/ml) by unfixed cells. Annexin V-FITC (Pharmingen) or 3, 3′-dihexyloxacarbocyanine iodide (DiOC6(3); Molecular Probes) staining was analyzed together with PI to discriminate early apoptotic cells. Apoptotic cells were also measured as sub-G1 events among ethanol-fixed cells stained with 10 μg/ml PI. All cell samples were analyzed using a benchtop FACSCalibur™ (Becton Dickinson, San Jose, Calif.). Flow data were analyzed using MultiCycle AV software (Phoenix Flow Systems). For intracellular pH measurements, cell pellets were washed once and resuspended in 2 ml of HEPES-buffered medium (no phenol red and no serum). Carboxy-SNARF-1-AM (Molecular Probes, 1 mM stock in DMSO, stored at −20° C.) was added to a final concentration of 10 μM, and the cells were incubated for 30 min at 37° C. Following incubation with SNARF, cells were sedimented and the pellets were held on ice. Immediately before analysis, pellets were resuspended in […] (HBSS; experimental buffer) or high-[K+] buffer containing nigericin (calibration samples).

RPMI-8226 = assay: as above; type: cell-based, human; settings: oligomycin 2-10 mg/ml, rotenone 0.5-2.5 mg/ml
Protocol: as §2

U266 = assay: as above; type: cell-based, human; settings: oligomycin 2-10 mg/ml, rotenone 0.5-2.5 mg/ml
Protocol: as §2

[9] = test system: TABX2S cells (over-expressing Bcl-xL); assay: cells; settings: for difference in sensitivity of the two cell lines: TABX2S vs TABX1A
Description: (§3) Briefly, a DNA fragment encoding the full-length mouse BCl-xL cDNA was isolated from the plasmid PBS.BCL-xL (Tzung et al., Am. J. Path. 150:1985-1995, 1997, incorporated herein by reference in its entirety) by digestion with the restriction endonuclease EcoRI. This EcoRI fragment was cloned into the EcoRI site of the mammalian expression vector pSFFV (Fuhlbrigge et al., Proc. Nat. Acad. Sci. USA 85:5649-5653, 1988) in both sense and antisense orientations, to form expression plasmids pSFFV.Bcl-xL(sense) or pSFFV.Bcl-xL(antisense), respectively. The tumorigenic murine hepatocyte cell line TAMH was transfected by lipofection (Lipofectamine, Life Technologies, Rockville, Md., according to the manufacturer's recommendations) with the plasmids pSFFV.neo (the control), pSFFV.Bcl-xL(sense) or pSFFV.Bcl-xL(antisense). […] Transfectants were selected for the acquisition of neomycin resistance by growing cells in the presence of 750 μg/ml of G418. Bulk transfectants were cloned by limiting dilution and individual clones were screened by immunoblot analysis to determine the level of BCl-xL protein expression as described below.
Selected transfectants were then tested for whole cell sensitivity to several apoptotic agents. Transfected cells were cultured to reach approximately 80% confluency prior to plating an equal number of cells from selected clones on 12-well tissue culture plates. The transplanted cells were treated with the following apoptotic agents: 5 μM doxorubicin for 48 hours; 5 μM cisplatin for 48 hours; or with 200 U/ml tumor necrosis factor (TNF) plus 1 μg/ml actinomycin D for 18 hours. Cell viability was determined by trypan blue dye exclusion. The percentage of viable cells was calculated by the number of viable cells (treated with a particular apoptogenic agent) divided by the number in the control group (untreated).
TABX2S cells and TABX1A cells were also examined for the effects of various mitochondrial inhibitors. […] Azide was diluted from an aqueous stock solution. […] Controls received an equivalent concentration of diluent. At various time points after drug treatment, cells were trypsinized, and cell viability was determined by trypan blue dye exclusion. The number of viable cells were counted and normalized to control group (i.e., % control=number of viable cells (treated group)/number of viable cells (control group)×100).

Bcl-xL(ΔC) WT = molecular target: T2, Bcl-xL(ΔC) WT (Homo sapiens, UniProt Q07817); assay: Pore-forming activity, calcein release from liposomes; type: biochemical
T2 construct: inferred from Ni-NTA purification and the pET22b(+) NdeI/XhoI cloning); made in house; host or cells: Escherichia coli BL21(DE3) carrying pUB520
Protocol: Large unilamellar vesicles composed of 60% dioleoylphophatidylcholine and 40% dioleoylphosphatidylglycerol were prepared by the extrusion method of Mayer et al., supra. Lipid stocks, in chloroform, were mixed and dried under a stream of nitrogen gas. The lipid was resuspended by vortexing for 30 min in a solution of 40 mM calcein (Molecular Probes), 25 mM KCl, and 10 mM KOAc, pH 5.0. After 10 freeze-thaw cycles, the lipid suspension was extruded through two 0.1 μm pore diameter Nucleopore filters. Non-entrapped dye was removed by passage over a Sephadex G10 column (Amersham Biosciences). Lipid concentration was measured using the ammonium ferrothiocyanate method (Stewart, Anal. Biochem. 104:10-14, 1980).
For pore assays, recombinant truncated Bcl-2 family protein or mutant protein (Bcl-xL(ΔC)) (500 nM) was added to large unilamellar vesicles (60 μM lipid concentration) in 100 mM KCl, 10 mM KOAc, pH 5.0, and fluorescence measured (490 nm excitation, 520 nm emission) with a Fluoromax-3 spectrophotometer. Peptides of the BH3 domain were incubated with the BCl-xL(ΔC) 5 min prior to mixing with liposomes. AA1 was added to liposomes 1 min before adding the Bcl-xL(ΔC) protein. Samples for kinetic assays were analyzed in a thermostatted cuvette at 37° C. with constant stirring. Dose responses were measured in black quartz microplates (Hellma) at room temperature. Calcein release was expressed as percentage of maximum release with detergent lysis (0.1% Triton X-100).

[10] = test system: TABX1A cells (under-expressing Bcl-xL); assay: Cell viability by trypan blue dye exclusion; settings: Mus musculus, 48 h, read-out: cells remained viable
Description: as §3
(§4) Selected transfectants were then tested for whole cell sensitivity to several apoptotic agents. Transfected cells were cultured to reach approximately 80% confluency prior to plating an equal number of cells from selected clones on 12-well tissue culture plates. […] Cell viability was determined by trypan blue dye exclusion. The percentage of viable cells was calculated by the number of viable cells (treated with a particular apoptogenic agent) divided by the number in the control group (untreated).
(§5) TABX2S cells and TABX1A cells were also examined for the effects of various mitochondrial inhibitors. […] At various time points after drug treatment, cells were trypsinized, and cell viability was determined by trypan blue dye exclusion. The number of viable cells were counted and normalized to control group (i.e., % control=number of viable cells (treated group)/number of viable cells (control group)×100).

TAMH.neo cells (control) = assay: Cell viability by trypan blue dye exclusion; settings: Mus musculus, 48 h, read-out: cells remained viable
Description: as §3, §4, §5

T1 sequence (P10415 1-217 limits assumed, stated change not applied): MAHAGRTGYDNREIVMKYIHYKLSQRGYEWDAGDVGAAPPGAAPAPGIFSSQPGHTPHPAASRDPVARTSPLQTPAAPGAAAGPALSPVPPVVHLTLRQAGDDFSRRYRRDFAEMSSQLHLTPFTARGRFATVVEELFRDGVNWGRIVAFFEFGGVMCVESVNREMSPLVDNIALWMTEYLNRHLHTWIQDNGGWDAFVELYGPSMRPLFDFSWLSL
T2 sequence (Q07817 1-211 limits assumed, stated change not applied): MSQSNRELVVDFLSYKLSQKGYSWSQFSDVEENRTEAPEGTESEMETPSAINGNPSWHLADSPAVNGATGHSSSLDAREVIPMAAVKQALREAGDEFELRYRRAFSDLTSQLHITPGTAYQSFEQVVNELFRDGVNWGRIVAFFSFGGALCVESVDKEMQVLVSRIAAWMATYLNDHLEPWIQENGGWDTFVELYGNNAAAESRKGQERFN

Compound: CN[C@@H]1C[C@H]2O[C@@](C)([C@@H]1OC)n1c3ccccc3c3c4c(c5c6ccccc6n2c5c31)C(=O)NC4 [STS, staurosporine]
- Cytotoxicity LD50 [1]: 0.11 ± 0.01 µM
- Cytotoxicity LD50 [2]: 0.58 ± 0.1 µM and 0.58 ± 0.14 µM
- Cytotoxicity LD50 [3]: 0.38 ± 0.04 µM
- Cytotoxicity LD50 [4]: 0.34 ± 0.10 µM
- Cytotoxicity LD50 [5]: 0.49 ± 0.11 µM
- Cytotoxicity LD50 [6]: 0.52 ± 0.12 µM

Compound: CCCC[C@H]1C(=O)O[C@H](C)[C@H](NC(=O)c2cccc(NC=O)c2O)C(=O)O[C@@H](C)[C@@H]1OC(=O)CC(C)C [antimycin A3, reference compound]
- increase of intrinsic fluorescence at 428 nm in the presence of Bcl-2 [7]: ≤ 18%
- mitochondrial depolarization (JC-1) [8]: not affected

Compound: CC[C@H]1/C=C/C=C/C[C@@H](C)[C@H](O)[C@@](C)(O)C(=O)[C@@H](C)[C@H](O)[C@@H](C)C(=O)[C@@H](C)[C@H](O)[C@@H](C)/C=C/C(=O)O[C@@H]2[C@H](C)[C@H](CC1)O[C@]1(CC[C@H](C)[C@H](C[C@@H](C)O)O1)[C@H]2C [oligomycin]
- cell killing by oxidative phosphorylation inhibitors (NCI-H929): killed
- cell killing by oxidative phosphorylation inhibitors (RPMI-8226): Only NCI-H929 cells were killed
- cell killing by oxidative phosphorylation inhibitors (U266): Only NCI-H929 cells were killed
- difference in sensitivity of the two cell lines [9]: no significant differences

Compound: C=C(C)[C@H]1Cc2c(ccc3c2O[C@@H]2COc4cc(OC)c(OC)cc4[C@@H]2C3=O)O1 [rotenone]
- cell killing by oxidative phosphorylation inhibitors (NCI-H929): none of the myeloma cell lines were killed
- cell killing by oxidative phosphorylation inhibitors (RPMI-8226): none of the myeloma cell lines were killed
- cell killing by oxidative phosphorylation inhibitors (U266): none of the myeloma cell lines were killed
- difference in sensitivity of the two cell lines [9]: no significant differences
- time until cell death apparent ([9]; after treatment, TABX2S and TABX1A cells): six to eight

Compound: CCCC[C@H]1C(=O)O[C@H](C)[C@H](NC(=O)c2cccc(NC=O)c2OCC(=O)c2ccccc2)C(=O)O[C@@H](C)[C@@H]1OC(=O)CC(C)C [phenacyl ether antimycin A3]
- effect on Bcl-xL pore-forming activity (Bcl-xL(ΔC) WT): no effect
- competition with antimycin A3 for Bcl-2 ([7]; 2 μM each, Bcl-2 3 μM, 7.5 minutes, 22.5° C.): did not displace antimycin A3

Compound: COc1cccc2c1C(=O)c1c(O)c3c(c(O)c1C2=O)C[C@@](O)(C(=O)CO)C[C@@H]3O[C@H]1C[C@H](N)[C@H](O)[C@H](C)O1 [doxorubicin]
- viability at 5 µM [10]: 20%
- viability at 5 µM (TAMH.neo cells (control)): 50%
- viability at 5 µM ([9]; Mus musculus, 48 h, read-out: cells remained viable): 88%
